Drawing on patent US10196417B2, “Baicalin magnesium compound and its preparation method and application” (CHENGDE MEDICAL UNIVERSITY, priority 2016, dated 2019), this text covers Analgesia % and Number of writhing for 1 molecule.

Marks after values point to notes of the source that are not given here.

This test deals with acetic acid-induced pain in mice. Briefly: Analgesia: acetic acid-induced writhing. Format: in vivo. As to conditions: 0.15 g/kg intragastric once per day 7 days. As to the method:
40 mice, 20-22 g in weight, were randomly divided into 4 groups each having 10 mice, a baicalin (0.067 g/kg) group, a baicalin magnesium (equivalent to 0.067 g/kg of baicalin) group, a blank control group (administrated with normal saline), and an aspirin positive control group (0.15 g/kg). The mice were intragastrically administrated once per day for successive 7 days. After 30 minutes of final administration, the mice were intraperitoneally injected with 0.6% acetic acid saline solution at a dose of 0.2 mL/10 g; the number of writhing responses in the mice within 15 minutes was counted. Analgesia % was calculated as follows: Analgesia %=[(average number of writhing responses of the blank control group−average number of writhing responses of the drug administration group)/average number of writhing responses of the blank control group]×100%. Single-factor variance analysis was performed on data by the SPSS19.0 statistical software, and P<0.05 was of statistical significance.

With `CC(=O)Oc1ccccc1C(=O)O` [Positive Control, aspirin], under “vs blank control”, the Analgesia % was 83.3* %. This molecule also yielded a Number of writhing (writhing within 15 minutes after 0.6% acetic acid i.p.) of 4.43 ± 3.21.
